Results published in ChEMBL document CHEMBL1123527 (J Med Chem, 1986).
Converted amounts (≈) assume the structure as drawn.

What was measured:
[1] = tested on: P388; test: (§1) Compound at a optimum dose level of 0.5 mg/kg was evaluated in vivo against Murine P388/0 […] cells (1 X 10E6 ip implant); format: functional, Mus musculus; conditions: route intraperitoneal
[2] = tested on: P388; test: Compound at a optimum dose level of 2 mg/kg was evaluated in vivo against Murine P388/MTX resistant cells (1 X 10E6 ip implant); format: functional, Mus musculus; conditions: route intraperitoneal
[3] = tested on: P388; test: as §1; format: organism-based; parameters: dose 0.5 mg/kg, route intraperitoneal; conditions: mouse
[4] = tested on: L1210; test: Compound was evaluated for rate of anabolism to polyglutamate accumulation in L1210 cells; format: functional, Mus musculus
[5] = tested on: L1210; test: cells; conditions: Mus musculus
[6] = molecular target: T1, Dihydrofolate reductase (Mus musculus, UniProt P00375); test: Compound was evaluated for inhibitory effect on dihydrofolate reductase (DHFR) from L1210 cells at Inhibitory constant (n=3); format: cell-based
T1 sequence (P00375 whole entry): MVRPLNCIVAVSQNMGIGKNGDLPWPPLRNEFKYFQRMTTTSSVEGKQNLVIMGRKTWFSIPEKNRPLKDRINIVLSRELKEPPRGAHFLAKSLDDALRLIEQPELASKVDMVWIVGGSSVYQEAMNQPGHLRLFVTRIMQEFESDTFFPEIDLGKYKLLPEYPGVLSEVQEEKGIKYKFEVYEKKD

[7] = tested on: L1210; test: Compound was evaluated for the influx (Km) mediated transport with respect to L1210 cells; format: functional, cell-based; conditions: Mus musculus
[8] = tested on: L1210; test: Compound was evaluated for the efflux (K) mediated transport with respect to L1210 cells; format: functional, cell-based; conditions: Mus musculus
[9] = tested on: P388; test: Compound at a optimum dose level of 0.5 mg/kg was evaluated in vivo against Murine P388/MTX resistant cells (1 X 10E6 ip implant); format: functional, Mus musculus; conditions: route intraperitoneal
[10] = tested on: Enterococcus faecium; test: Compound was evaluated for inhibitory effect on growth of Streptococcus faecium ATCC 8043; format: functional, organism-based
[11] = tested on: Lacticaseibacillus casei; test: Compound was evaluated for inhibitory effect on growth of Lactobacillus casei MTX resistant; format: functional, organism-based
[12] = tested on: Enterococcus faecium; test: Compound was evaluated for inhibitory effect on growth of Streptococcus faecium MTX resistant; format: functional, organism-based
[13] = tested on: Lacticaseibacillus casei; test: Compound was evaluated for inhibitory effect on growth of Lactobacillus casei ATCC 7469; format: functional, organism-based
[14] = molecular target: T2, Thymidylate synthase (Lactobacillus casei, UniProt P00469); test: (§2) Compound was evaluated for inhibitory effect on the thymidylate synthase (TS) of Lactobacillus casei; format: functional, Lacticaseibacillus casei
T2 sequence (P00469 whole entry): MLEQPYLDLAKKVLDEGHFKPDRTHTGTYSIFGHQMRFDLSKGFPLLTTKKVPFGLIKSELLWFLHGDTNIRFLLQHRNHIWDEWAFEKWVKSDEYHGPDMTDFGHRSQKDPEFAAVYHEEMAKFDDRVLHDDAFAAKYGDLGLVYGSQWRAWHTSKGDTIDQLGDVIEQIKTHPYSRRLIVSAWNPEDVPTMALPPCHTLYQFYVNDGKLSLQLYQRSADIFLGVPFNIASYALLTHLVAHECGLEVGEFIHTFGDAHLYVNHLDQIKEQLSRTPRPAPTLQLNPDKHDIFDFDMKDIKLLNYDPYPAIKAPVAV

[15] = molecular target: T2, Thymidylate synthase; test: as §2; parameters: species or system Lacticaseibacillus casei
[16] = tested on: L1210; test: Compound was evaluated for the influx (Km) mediated transport with respect to L1210 cells.; format: functional, cell-based; conditions: Mus musculus
[17] = Lacticaseibacillus casei, read-out: IC50

Row | SMILES | Survival time [1] | Survival time [2] | T/C [3] | Rate [4] | IC50 [5] | Ki [6] | Km [7] | K [8] | IC50 [10] | IC50 [12] | other results
1 | CCOC(=O)CCC(NC(=O)c1ccc(NCc2cnc3nc(N)nc(N)c3c2)cc1)C(=O)OCC (stereo not given) | 16.2 days | 20.8 days | 151% | – | – | – | – | – | – | – | –
2 | Cc1c(CN(C)c2ccc(C(=O)NC(CCC(=O)O)C(=O)O)cc2)cnc2nc(N)nc(N)c12 (stereo not given) | 19.7 days | 20.8 days | 182% | 42.9 pM min-1 (g dry weight)-1 | 0.24 nM | 0.00212 nM | 3.2 µM | 0.31 min⁻¹ | – | – | –
3 | Cc1c(CNc2ccc(C(=O)NC(CCC(=O)O)C(=O)O)cc2)cnc2nc(N)nc(N)c12 (stereo not given) | 16.4 days | – | 151% | 98.3 pM min-1 (g dry weight)-1 | 0.13 nM | 0.00293 nM | 1.2 µM | 0.26 min⁻¹ | – | – | Survival time [9]: 20.8 days
4 | Cc1c(CNc2ccc(C(=O)NC(CCC(=O)O)C(=O)O)cc2)cnc2nc(N)nc(O)c12 (stereo not given) | – | – | – | – | – | – | – | – | 380 ng/mL (≈ 0.836 µM) | > 10000 ng/mL | IC50 [11, 17]: > 10000 ng/mL; IC50 [13]: 0.57 ng/mL (≈ 0.00125 µM)
5 | Nc1nc(O)c2cc(CNc3ccc(C(=O)NC(CCC(=O)O)C(=O)O)cc3)cnc2n1 (stereo not given) | – | – | – | – | – | – | – | – | 0.09 ng/mL (≈ 0.000204 µM) | 49 ng/mL (≈ 0.111 µM) | IC50 [11, 17]: 3500 ng/mL (≈ 7.95 µM); IC50 [14]: 1700 nM; IC50 [13]: 0.054 ng/mL (≈ 0.000123 µM)
6 | Nc1nc(N)c2cc(CNc3ccc(C(=O)NC(CCC(=O)O)C(=O)O)cc3)cnc2n1 (stereo not given) | 15.8 days | 21.8 days | 146% | 84.2 pM min-1 (g dry weight)-1 | 0.63 nM | 0.00365 nM | 1.1 µM | 0.3 min⁻¹ | – | – | –
7 | Cc1c(CN(C)c2ccc(C(=O)NC(CCC(=O)O)C(=O)O)cc2)cnc2nc(N)nc(O)c12 (stereo not given) | – | – | – | – | – | – | – | – | 30 ng/mL (≈ 0.064 µM) | > 10000 ng/mL | IC50 [11, 17]: > 10000 ng/mL; IC50 [15]: 2.77 nM; IC50 [13]: 4.6 ng/mL (≈ 0.00982 µM)
8 | CN(Cc1cnc2nc(N)nc(N)c2c1)c1ccc(C(=O)NC(CCC(=O)O)C(=O)O)cc1 (stereo not given) | 18 days | 20.3 days | 166% | 48.8 pM min-1 (g dry weight)-1 | 2.85 nM | 0.00526 nM | – | 0.28 min⁻¹ | – | – | Km [16]: 4 µM
9 | CCN(Cc1cnc2nc(N)nc(N)c2c1C)c1ccc(C(=O)NC(CCC(=O)O)C(=O)O)cc1 (stereo not given) | – | – | – | – | 0.26 nM | 0.00264 nM | 3.3 µM | 0.29 min⁻¹ | – | – | –
10 | Nc1nc(N)c2nc(CNc3ccc(C(=O)N[C@@H](CCC(=O)O)C(=O)O)cc3)cnc2n1 [AMINOPTERIN] | – | – | – | 165 pM min-1 (g dry weight)-1 | – | 0.00355 nM | 1.2 µM | 0.31 min⁻¹ | – | – | –
11 | CN(Cc1cnc2nc(N)nc(N)c2n1)c1ccc(C(=O)N[C@@H](CCC(=O)O)C(=O)O)cc1 [METHOTREXATE] | 19.7 days | 20.3 days | 182% | – | – | – | 3.3 µM | 0.33 min⁻¹ | 0.26 ng/mL (≈ 0.000572 µM) | 3000 ng/mL (≈ 6.6 µM) | IC50 [11]: > 500000 ng/mL
